Results from patent US7906675B2, “Compounds for the treatment of metabolic disorders” (Wellstat Therapeutics Corporation, priority 2003, dated 2011).

Test system: C57BL/Ksola (db/db) mice
Experiment: Antidiabetic effects in db/db diabetic mouse model
Type: in vivo
Conditions: serum, 60 mg/kg daily oral for 17 days
Source text: C57BL/Ksola (db/db) mice have a defect in leptin signaling, leading to hyperphagia, obesity, hypertriglyceridemia, and diabetes. Moreover, unlike ob/ob mice on a C57BL/6J background, db/db mice on a C57BLKS background undergo failure of their insulin-producing pancreatic islet cells, resulting in progression from hyperinsulinemia (associated with peripheral insulin resistance) to hypoinsulinemic diabetes.
Male obese (db/db homozygote) C57BL/Ksola mice approximately 8 weeks of age, were obtained from Jackson Labs (Bar Harbor, Me.) and sorted into groups of 7 animals each animals such that the body weights (40-45 g) and serum glucose levels (≧300 mg/dl in fed state) were similar between groups. A minimum of 7 days was allowed for adaptation after arrival. All animals were maintained under controlled temperature (23° C.), relative humidity (50±5%) and light (7:00-19:00), and allowed free access to standard chow (Formulab Diet 5008, Quality Lab Products, Elkridge, Md.) and water.
Groups of mice received daily oral doses of vehicle (1% hydroxypropylmethylcellulose) or Compound CS (60 mg/kg) for 17 days. At the end of the treatment period, blood samples were collected and serum glucose, triglycerides, and free fatty acids were measured.

Cc1cccc(C)c1CSc1ccc(C(=O)CCC(=O)O)cc1 [Compound CS, 4-(4-[(2,6-Dimethylbenzyl)-thio]-phenyl)-4-oxobutyric acid] was tested, and the “Free Fatty Acids” value was 2034 ± 195 µM, the Triglycerides was 150 ± 10 mg/dL and the Glucose (±SEM) was 593 ± 77 mg/dL.
